From a melting point compilation (Tetko et al.; mined from patent text by program, amines drawn as free bases though some values may be those of a salt)
Residues, ends and D or L forms follow the SMILES beside them.

| SMILES | melting point |
| --- | --- |
| CCCCCCCCCCCCn1nnc(C(C(=O)Nc2cc(C)c(O)c(C)c2C)c2ccccc2)n1 (single isomer, unassigned; (+)) | 105 °C |
| O=c1n(CCCCN2CCC(n3c(=O)[nH]c4ccccc43)CC2)nc2n1-c1ccccc1OC2 | 173 to 176 °C |
| Clc1ccc(-n2nc3cc(Cl)ccc3c2Cl)c(Cl)c1 | 120 °C |
| CCOC(=O)c1c(-c2ccccc2)c2c3ccccc3ccn2c1C(C)C | 82 to 84 °C |
| CN(Cc1ccccc1)c1ccc(C(=O)O)nc1 | 168 to 173 °C |
| CC(=O)Nc1nc2ccnc(-c3cccc(NS(=O)(=O)c4ccc(C)cc4)c3)n2n1 | 208 to 211 °C |
| CCS(=O)(=O)Nc1c(C)c(C)c2c(c1C)C(c1ccc(C(C)C)cc1)CO2 (configuration not stated) | 132 to 133 °C |
| Cc1cc(=O)c(OCC(=O)O)cn1C | 240 to 242 °C |
| C=CCN1C(C)(C)CC(Oc2nc(OC3CC(C)(C)N(CC=C)C(C)(C)C3)nc(OC3CC(C)(C)N(CC=C)C(C)(C)C3)n2)CC1(C)C | 218 to 219 °C |
| CCC(CC)Sc1cc(S(N)(=O)=O)c(N)cc1Cl | 118 to 120 °C |
| Cn1nc(C(=O)O)cc1OCCCN1CCN(c2cccc3sccc23)CC1 | 114 to 118 °C |
| COc1ccccc1NC(=O)c1ccncc1 | 79 to 80 °C |
| O=C(Oc1ccccc1)N1CCN(c2nn(S(=O)(=O)c3ccccc3)c3ccccc23)CC1 | 112 to 114 °C |
| CCOC(=O)C(=CNn1cnnc1)C(=O)c1cc(F)c(F)cc1F | 239 to 240 °C |
| CC[C@H](O)CC(=O)N[C@H]1CC[C@H](CCN2CCN(c3nccc4c3CCO4)CC2)CC1 | 158 °C |
| CCN(CC)CC#CC(=O)Nc1ccc2ncc(C#N)c(Nc3ccc(F)c(Cl)c3)c2c1 | 117 to 120 °C |
| COC(=O)C1=C(C)NC(C)=C(C(=O)OCCN2CCN(C(c3ccc(C)cc3)c3ccc(C)cc3)CC2)C1c1cccc([N+](=O)[O-])c1 (configuration not stated) | 83 to 87 °C |
| O=C(CCC1CCCCC1)NC1N=C(C2CCCCC2)c2ccccc2NC1=O (configuration not stated) | 133 to 138 °C |
| CC(=O)NC(C)C(=O)NC(C)C(=O)NC(CC(C)C)C(=O)O (stereo not drawn) (Ac-Ala-Ala-Leu-OH; configuration not given here) | 185 to 186 °C |
| O=C(Cc1ccc(Br)cc1)OCc1ccccc1 | 47.5 to 48 °C |
| Cn1cccc1C(=O)c1[nH]c2ccc(Cl)cc2c1CC(=O)O | 203 to 205 °C |
| COc1ccc2c(c1)c(CC(=O)ON(C(N)=O)C(C)c1cc3ccccc3s1)c(C)n2C(=O)c1ccc(Cl)cc1 (configuration not stated) | 153 to 155 °C |
| CCc1ccc(CCOc2ccc(C=C3SC(=O)NC3=O)cc2)nc1 | 166 to 167 °C |
| CN(Cc1cc2c(=O)c(C(=O)NCc3ccc(Cl)cc3)cn(C)c2s1)C[C@@H](O)c1ccco1 | 159 to 162 °C |
| O=C(O)CCCNC(=O)c1ccc(NC(=O)c2ccccc2O)cc1 | 211 to 213 °C |

| SMILES | melting point |
| --- | --- |
| COc1ccc([C@H]2N[C@H](c3ccc4c(c3)OCO4)c3ccccc32)cc1 (racemic) | 123 to 125 °C |
| C[C@@H]1CN(C(=O)OC(C)(C)C)Cc2cc3cc(F)cnc3n21 | 85 to 87 °C |
| c1ccc(Sc2ccc(Sc3ccccc3)cc2)cc1 | 78 to 79 °C |
| CCCCCNC1=CC(=O)c2c(OC)ccc(OC)c2C1=O | 102 to 103 °C |
| COc1ccc2c(c1OC)CCCC2=O | 103 to 104 °C |
| CC(C)c1sc(C(O)(C(F)(F)F)C(F)(F)F)nc1-c1ccc(S(C)(=O)=O)cc1 | 122 to 123 °C |
| CN(C)CC/C=C/c1ccc2c(Nc3ccc(Sc4nccn4C)c(Cl)c3)c(C#N)cnc2c1 | 191 to 198 °C |
| Cc1cnc2oc(-c3ccccc3)nc2c1 | 71 to 73 °C |
| O=C(Cc1ccc(Cl)cc1)NCc1cccc2c1C(=O)N(C1CCC(=O)NC1=O)C2=O (configuration not stated) | 243 to 245 °C |
| C#CCn1c(CC)nc2c(N)nc3ccccc3c21 | 182 to 184 °C |
| Cc1cc(F)ccc1-c1ccc(S(=O)(=O)N2c3ccccc3CC2C(=O)NCc2ccccc2N)cc1 (configuration not stated) | 92 to 96 °C |
| CC1CC2C3CC(F)C4=CC(=O)C=CC4(C)C3C(O)CC2(C)C1C(=O)COC(=O)CCC(=O)O (configuration not stated) | 212 to 214 °C |
| CCCCc1nc(C(O)(CC)CC)c(C(=O)OCC)[nH]1 | 63 to 64 °C |
| Cc1nnc(-c2ccc(F)cc2F)n2nc(OCc3ncnn3C)c(-c3ccsc3)c12 | 144 to 146 °C |
| Cc1ccccc1CC(=O)c1c(O)c2cccnc2n(-c2cccc(OC(F)(F)F)c2)c1=O | 132 to 134 °C |
| Cc1nc(Cc2ccccc2)c(CO)c(CO)c1O | 158 to 159 °C |
| COc1ccc(C(=O)O)cc1OC1CCSC1 (configuration not stated) | 177 to 179 °C |
| CCc1nc(N)nc(N)c1CCCc1cccc(-c2ccccc2)c1 | 128 to 133 °C |
| CCC(O)CN1CCC(C)C(c2ccc(Cl)cc2)=N1 (configuration not stated) | 90.5 to 91.5 °C |
| COc1ccc(C(=O)c2cc(F)ccc2F)c(O)c1Cl | 178 to 180 °C |
| CC(=O)OCC1CCc2c(C3=C(c4cn(C)c5ccccc45)C(=O)OC3=O)c3ccccc3n2CC1 (configuration not stated) | 70 °C |
| CC(=O)N1N=C(c2ccc(N)cc2)c2cc(Cl)c(Cl)cc2CC1C (configuration not stated) | 242 to 243 °C |
| O=[N+]([O-])c1cc(Cl)c2cccnc2c1O | 201 to 202 °C |
| CCOC(=O)C1=Cc2cccc(/C=C/C(=O)O)c2OCC1 | 166 to 168 °C |
| Cc1cc(C(O)=S)c(Cl)cc1Cl | 187 °C |

| SMILES | melting point |
| --- | --- |
| CCCCc1nc(Cl)c(C(=O)O)n1Cc1ccc2oc(-c3ccccc3-c3nnn[nH]3)cc2c1 | 209 to 210 °C |
| CN(c1cccc(C=C2c3ccccc3CCc3ccccc32)c1)S(C)(=O)=O | 124 °C |
| COc1ccc(C2C(C#N)=C(N)Oc3c2ccc2cnccc32)cc1OC (configuration not stated) | 215 to 218 °C |
| Fc1ccc(-c2csc(NN=Cc3cn(Cc4ccc(Cl)cc4Cl)c4ccccc34)n2)cc1 | 198 °C |
| O=C(O)CC[C@@H](CSc1ccc(Cc2ccccc2)cc1)NC(=O)CCCCCCc1ccccc1 | 89 to 91.5 °C |
| CC1(C)OC(=O)Nc2ccc(-c3cccc(CC#N)c3)cc21 | 188 to 190 °C |
| O=c1[nH][nH]c(=O)n1-c1c(F)cc(Cl)c2c1CCCO2 | 271 to 273 °C |
| CCNC1=C(c2ccc(O)cc2)C(=O)c2cc(O)ccc21 | 250 °C |
| NC(C(=O)O)c1ccc(C(=O)O)c(O)c1CCCc1ccccc1 (configuration not stated) | > 250 °C |
| COC(=O)C(C)=Cc1ccc(O)cc1 | 103 to 104 °C |
| CC(=NOCCO)c1ccc(-c2ccc(C)cc2)cc1 | 142 to 144 °C |
| CCCCCCCCOc1ccc(-c2ccc(OCCCCCCCC)c(F)c2)cc1F | 84 °C |
| N#CCCNC(=S)C1=CC(CF)(CF)Oc2ccc(C(F)(F)C(F)(F)F)cc21 | 108 to 109 °C |
| Cc1cccc(-c2[nH]c(C(C)C)nc2-c2cccc(-c3ccoc3)c2)n1 | 74 to 78 °C |
| CCn1cc(-c2sc(NC(=O)c3ccncc3)nc2-c2ccco2)ccc1=O | 285 to 289 °C |
| Cc1nc(N2CCN(CCc3c[nH]c4ccccc34)C2=O)sc1C(=O)NCc1cccnc1 | 198 to 201 °C |
| CC(C)CN1C(=O)C2=C3SC(S(N)(=O)=O)=CC1CC(C2)S3(=O)=O (configuration not stated) | 239 to 241 °C |
| COc1ccc(Cn2cc3nc(Cl)nc(-c4c(F)cccc4OC)c3n2)cc1 | 180 to 181 °C |
| CN1c2ccccc2NC(=O)c2cccnc21 | 235 to 237 °C |
| CCc1cc(CC)n2nccc2n1 | 43 to 44 °C |
| CC(C)(C)OC(=O)N1CCN(C(=O)N2CC(=O)Nc3ccccc32)CC1 | 166 to 167 °C |
| Cc1cc2n(C)c3ncccc3c(=O)n2n1 | 242 °C |
| COc1cccc2c1OC(C)C2=O (configuration not stated) | 60 to 61 °C |
| CC(C)C(c1cncnc1C(F)(F)F)N(C)C(=O)N(C)Cc1ccc(Cl)cc1 (configuration not stated) | 95 to 98 °C |
| COc1ccc(S(=O)(=O)C(CCCCCc2ccc(Cl)cc2)C(=O)O)cc1 (configuration not stated) | 58 to 65 °C |

| SMILES | melting point |
| --- | --- |
| CCC(Oc1cnc(Cl)c(Cl)c1)C(=O)O (configuration not stated) | 117 to 118 °C |
| CCOC(=O)C=C(C(=O)OCC)c1ccc(C(Br)Br)cc1 | 89 to 92.5 °C |
| CCCc1c(OCCCCOc2cccc(Sc3ccc(C(=O)O)cc3)c2)ccc(C(C)=O)c1O | 100 to 102 °C |
| COCC(=O)Nc1c(Cl)c(C)cc2nc(OC)c(OC)nc12 | 170 to 171 °C |
| CCOCC1OC(n2cnc3c(N)nc(Cl)nc32)C(O)C1O (configuration not stated) | 117 to 119 °C |
| CCOC(=O)C(C)(C)OCc1cc2cc(C(F)(F)F)ccc2n1S(=O)(=O)c1ccccc1 | 62 to 64 °C |
| NCC(O)CN1CCC(C2(c3ccc(F)cc3)OCCO2)CC1 (configuration not stated) | 132 to 136 °C |
| CCCCCCCC=CC1=Nc2ccc(F)cc2C(=O)C1C (configuration not stated) | 192 to 193 °C |
| COc1cccc2c1C(=O)c1cccc3cc(O)cc-2c13 | 298 to 300 °C |
| N=C(N)NC(=O)OCCNC(=O)c1ccc2cc(C(=O)NC(=N)N)ccc2c1 | 205 °C |
| CCCCCC#CCC(CC#CCCCCC)(C(=O)O)S(=O)(=O)c1ccc(OC)cc1 | 61 °C |
| COc1ccc(-c2nc3ccc(CBr)cc3o2)cc1 | 137 to 138 °C |
| CC(C)(CO)COc1c(-c2ccc(S(C)(=O)=O)cc2)cnn(-c2ccc(F)c(F)c2)c1=O | 161 to 162 °C |
| Nc1nc2c(c(=O)[nH]1)n(CC(=O)c1ccc(Cl)cc1)c(=O)n2C1OC(CO)C(O)C1O (configuration not stated) | > 230 °C |
| CC(C)c1nc(CCN(C)C(=O)N[C@H](C(=O)N[C@@H](Cc2ccccc2)C[C@H](O)[C@H](Cc2ccccc2)NC(=O)OCc2cncs2)C(C)C)cs1 | 62 to 63 °C |
| CCCCCCc1ccc(-c2ncc(C#N)c(Cl)n2)cc1 | 80.3 to 80.5 °C |
| CC(C)c1nn(-c2ccc(C(F)(F)F)cn2)cc1CCCCOc1ccccc1CC(=O)O | 125 to 126 °C |
| O=CN1CCN(c2ccnc(Cl)n2)CC1 | 125 to 126 °C |
| O=C1c2ccccc2N(c2ccccc2)CN1O | 156 to 160 °C |
| CCOC(OCC)c1[nH]c(C2CC2)nc(=O)c1Cl | 109 to 111 °C |
| COc1cc(C(=O)NS(=O)(=O)c2ccccc2Br)ccc1Cc1cccc2ccc(CCCCC(=O)N(C)C)cc12 | 91 to 97 °C |
| CC1(C)CC(N(CCO)S(C)(=O)=O)c2cc(OCc3ccccc3)ccc2O1 (configuration not stated) | 78 to 80 °C |
